In the assay the target is T1, human LMPTP-A (Homo sapiens, UniProt P24666).
T1 sequence (P24666 1-158): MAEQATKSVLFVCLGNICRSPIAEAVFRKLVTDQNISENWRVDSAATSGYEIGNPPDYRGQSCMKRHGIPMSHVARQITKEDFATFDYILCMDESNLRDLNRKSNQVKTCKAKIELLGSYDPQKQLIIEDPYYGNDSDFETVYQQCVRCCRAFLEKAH
The experiment in a line: Enzyme Assay of Inhibition of LMPTP-A. Format: biochemical. Conditions: phosphatase assay, OMFP or pNPP substrate, 50 mM Bis-Tris pH 6.0, 37° C. As for the experimental part:
Phosphatase assays were performed in buffer containing 50 mM Bis-Tris, pH 6.0, 1 mM DTT and 0.01% Triton X-100 at 37° C. For assays conducted with 3-O-methylfluorescein phosphate (OMFP) as substrate, fluorescence was monitored continuously at λex=485 and λem=525 nm. For assays conducted with para-nitrophenylphosphate (pNPP) as substrate, the reaction was stopped by addition of 2× reaction volume of 1 M NaOH, and absorbance was measured at 405 nm. IC50 values of compounds disclosed herein were determined from plots of inhibitor concentration versus percentage of enzyme activity. For inhibitor selectivity assays, each PTP was incubated with either 0.4 mM OMFP or 5 mM pNPP in the presence of 40 μM compound or DMSO. […] For the inhibitor reversibility assay, 50 nM human LMPTP-A was pre-incubated with 10 μM of compound disclosed herein or DMSO for 5 min. The enzyme was diluted 100× in phosphatase assay buffer containing 0.4 mM OMFP and fluorescence was measured at the indicated time points.

These results are taken from patent US20200338084A1, “INHIBITORS OF LOW MOLECULAR WEIGHT PROTEIN TYROSINE PHOSPHATASE (LMPTP) AND USES THEREOF” (Sanford Burnham Prebys Medical Discovery Institute, priority 2018, published 2020).

Structures are written as SMILES. pIC50: −log10 of the molar value.

By pIC50 is commonly meant the negative decadic logarithm of the IC50, by convention in mol/L. The low end stands for a high IC50, the high end for a low IC50. Turning to `Cc1ccc(-c2nc3c(N)ncn(Cc4c(Cl)cccc4Cl)c-3n2)cc1` [3-[(2,6-Dichlorophenyl)methyl]-8-(4-methylphenyl)-3-hydropurine-6-ylamine], the pIC50 is at least 6.00. Then `Nc1ncn(Cc2c(Cl)cccc2Cl)c2nc(C3CCNCC3)nc1-2` [3-[(2,6-Dichlorophenyl)methyl]-8-(4-piperidyl)-3-hydropurine-6-ylamine], with at least 6.00; and `Nc1ncn(Cc2c(Cl)cccc2Cl)c2nc(-c3ccncc3)nc1-2` [3-[(2,6-Dichlorophenyl)methyl]-8-(4-pyridyl)-3-hydropurine-6-ylamine], with at least 6.00; and `Cc1ccc(-c2nc3c(N)ncn(Cc4c(Cl)cccc4Cl)c-3n2)s1` [3-[(2,6-Dichlorophenyl)methyl]-8-(5-methyl(2-thienyl))-3-hydropurine-6-ylamine], with at least 6.00. Molecule `Nc1ncn(Cc2c(Cl)cccc2Cl)c2nc(-c3cccc(Cl)n3)nc1-2` [3-[(2,6-Dichlorophenyl)methyl]-8-(6-chloro(2-pyridyl))-3-hydropurine-6-ylamine] showed a pIC50 of at least 6.00. Then `COc1ccc(-c2nc3c(N)ncn(Cc4c(Cl)cccc4Cl)c-3n2)cn1` [3-[(2,6-Dichlorophenyl)methyl]-8-(6-methoxy(3-pyridyl))-3-hydropurine-6-ylamine], with at least 6.00; and `Nc1ncn(Cc2c(Cl)cccc2Cl)c2nc(C(c3ccccc3)c3ccccc3)nc1-2` [3-[(2,6-Dichlorophenyl)methyl]-8-(diphenylmethyl)-3-hydropurine-6-ylamine], with at least 6.00; and `CC(c1ccccc1)c1nc2c(N)ncn(Cc3c(Cl)cccc3Cl)c-2n1` (stereo not shown) [3-[(2,6-Dichlorophenyl)methyl]-8-(phenylethyl)-3-hydropurine-6-ylamine], with at least 6.00.

On to `Nc1ncn(Cc2c(Cl)cccc2Cl)c2nc(Cc3ccc(Br)cc3)nc1-2` [3-[(2,6-Dichlorophenyl)methyl]-8-[(4-bromophenyl)methyl]-3-hydropurine-6-ylamine], for which the pIC50 is at least 6.00.

Molecule `Nc1ncn(Cc2c(Cl)cccc2Cl)c2nc(Cc3ccccc3)nc1-2` [3-[(2,6-Dichlorophenyl)methyl]-8-benzyl-3-hydropurine-6-ylamine] had a pIC50 of at least 6.00. For `Nc1ncn(Cc2c(Cl)cccc2Cl)c2nc(Br)nc1-2` [3-[(2,6-Dichlorophenyl)methyl]-8-bromo-3-hydropurine-6-ylamine] the value was 4.70 to 6.00. `Nc1ncn(Cc2c(Cl)cccc2Cl)c2nc(Cl)nc1-2` [3-[(2,6-Dichlorophenyl)methyl]-8-chloro-3-hydropurine-6-ylamine]: the pIC50 is at most 4.70. Then `Nc1ncn(Cc2c(Cl)cccc2Cl)c2nc(C3CCC3)nc1-2` [3-[(2,6-Dichlorophenyl)methyl]-8-cyclobutyl-3-hydropurine-6-ylamine], with at least 6.00; and `Nc1ncn(Cc2c(Cl)cccc2Cl)c2nc(C3=CCCCC3)nc1-2` [3-[(2,6-Dichlorophenyl)methyl]-8-cyclohex-1-enyl-3-hydropurine-6-ylamine], with at least 6.00; and `Nc1ncn(Cc2c(Cl)cccc2Cl)c2nc(C3CCCCC3)nc1-2` [3-[(2,6-Dichlorophenyl)methyl]-8-cyclohexyl-3-hydropurine-6-ylamine], with at least 6.00.

The molecule `CCCCCCc1nc2c(N)ncn(Cc3c(Cl)cccc3Cl)c-2n1` [3-[(2,6-Dichlorophenyl)methyl]-8-hexyl-3-hydropurine-6-ylamine] showed a pIC50 of at least 6.00. For `Cc1nc2c(N)ncn(Cc3c(Cl)cccc3Cl)c-2n1` [3-[(2,6-Dichlorophenyl)methyl]-8-methyl-3-hydropurine-6-ylamine] the value was at least 6.00; for `Nc1ncn(Cc2c(Cl)cccc2Cl)c2nc(-c3ccccc3)nc1-2` [3-[(2,6-Dichlorophenyl)methyl]-8-phenyl-3-hydropurine-6-ylamine], at least 6.00; for `CCCc1nc2c(N)ncn(Cc3c(Cl)cccc3Cl)c-2n1` [3-[(2,6-Dichlorophenyl)methyl]-8-propyl-3-hydropurine-6-ylamine], at least 6.00. For `Nc1ncn(Cc2c(Cl)cccc2Cl)c2nc(-c3cc[nH]n3)nc1-2` [3-[(2,6-Dichlorophenyl)methyl]-8-pyrazol-5-yl-3-hydropurine-6-ylamine] the value was at most 4.70. For `Nc1ncn(Cc2c(Cl)cccc2Cl)c2nc(-c3ccc[nH]3)nc1-2` [3-[(2,6-Dichlorophenyl)methyl]-8-pyrrol-2-yl-3-hydropurine-6-ylamine] the value was at least 6.00; for `Nc1ncn(Cc2c(Cl)cccc2Cl)c2nc(C(F)(F)C(F)(F)F)nc1-2` [3-[(2,6-dichlorophenyl)methyl]-8-(1,1,2,2,2-pentafluoroethyl)-3-hydropurine-6-ylamine], at most 4.70; for `Nc1ncn(Cc2c(Cl)cccc2Cl)c2nc(-c3ccc(F)c(F)c3F)nc1-2` [3-[(2,6-dichlorophenyl)methyl]-8-(2,3,4-trifluorophenyl)-3-hydropurine-6-ylamine], at least 6.00.

For `Nc1ncn(Cc2c(Cl)cccc2Cl)c2nc(-c3cccc(F)c3F)nc1-2` [3-[(2,6-dichlorophenyl)methyl]-8-(2,3-difluorophenyl)-3-hydropurine-6-ylamine], the pIC50 is at least 6.00.

`Nc1ncn(Cc2c(Cl)cccc2Cl)c2nc(-c3cc(F)c(F)cc3F)nc1-2` [3-[(2,6-dichlorophenyl)methyl]-8-(2,4,5-trifluorophenyl)-3-hydropurine-6-ylamine] showed a pIC50 of at least 6.00. Then `Nc1ncn(Cc2c(Cl)cccc2Cl)c2nc(-c3ccc(F)cc3F)nc1-2` [3-[(2,6-dichlorophenyl)methyl]-8-(2,4-difluorophenyl)-3-hydropurine-6-ylamine], with at least 6.00; and `Nc1ncn(Cc2c(Cl)cccc2Cl)c2nc(-c3c(F)cccc3F)nc1-2` [3-[(2,6-dichlorophenyl)methyl]-8-(2,6-difluorophenyl)-3-hydropurine-6-ylamine], with at least 6.00; and `Nc1ncn(Cc2c(Cl)cccc2Cl)c2nc(-c3ccc(F)c(F)c3)nc1-2` [3-[(2,6-dichlorophenyl)methyl]-8-(3,4-difluorophenyl)-3-hydropurine-6-ylamine], with at least 6.00. Then `Nc1ncn(Cc2c(Cl)cccc2Cl)c2nc(C(F)F)nc1-2` [3-[(2,6-dichlorophenyl)methyl]-8-(difluoromethyl)-3-hydropurine-6-ylamine], with 4.70 to 6.00; and `Nc1ncn(Cc2c(Cl)cccc2Cl)c2nc(CCc3ccc(F)cc3)nc1-2` [3-[(2,6-dichlorophenyl)methyl]-8-[2-(4-fluorophenyl)ethyl]-3-hydropurine-6-ylamine], with at least 6.00. In turn, `Cc1ccccc1Cc1nc2c(N)ncn(Cc3c(Cl)cccc3Cl)c-2n1` [3-[(2,6-dichlorophenyl)methyl]-8-[(2-methylphenyl)methyl]-3-hydropurine-6-ylamine] had a pIC50 of at least 6.00.

For `Nc1ncn(Cc2c(Cl)cccc2Cl)c2nc(COc3ccc(Br)cc3)nc1-2` [3-[(2,6-dichlorophenyl)methyl]-8-[(4-bromophenoxy)methyl]-3-hydropurine-6-ylamine], the pIC50 was at least 6.00. Regarding `Nc1ncn(Cc2c(Cl)cccc2Cl)c2nc(Cc3ccc(F)cc3)nc1-2` [3-[(2,6-dichlorophenyl)methyl]-8-[(4-fluorophenyl)methyl]-3-hydropurine-6-ylamine], the pIC50 is at least 6.00. Then `COc1ccc(Cc2nc3c(N)ncn(Cc4c(Cl)cccc4Cl)c-3n2)cc1` [3-[(2,6-dichlorophenyl)methyl]-8-[(4-methoxyphenyl)methyl]-3-hydropurine-6-ylamine], with at least 6.00; and `Nc1ncn(Cc2c(Cl)cccc2Cl)c2nc(Cc3ccc(C(F)(F)F)cc3)nc1-2` [3-[(2,6-dichlorophenyl)methyl]-8-{[4-(trifluoromethyl)phenyl]methyl}-3-hydropurine-6-ylamine], with at least 6.00. With `Nc1ncn(Cc2c(Cl)cncc2Cl)c2nc(-c3ccccc3)nc1-2` [3-[(3,5-Dichloro(4-pyridyl))methyl]-8-phenyl-3-hydropurine-6-ylamine], the pIC50 is at least 6.00.

The molecule `Nc1ncn(Cc2c(Br)cncc2Br)c2ncnc1-2` [3-[(3,5-dibromo-4-pyridyl)methyl]-3-hydropurine-6-ylamine] had a pIC50 of at least 6.00.

As to `Nc1ncn(Cc2ccncc2Cl)c2ncnc1-2` [3-[(3-chloro-4-pyridyl)methyl]-3-hydropurine-6-ylamine], the negative-log IC50 (pIC50) is 4.70 to 6.00.

`Cn1ncc(Br)c1Cn1cnc(N)c2ncnc1-2` [3-[(4-bromo-1-methylpyrazol-5-yl)methyl]-3-hydropurine-6-ylamine]: the pIC50 was at least 6.00. Then `Nc1ncn(Cc2c(Br)ccnc2Cl)c2ncnc1-2` [3-[(4-bromo-2-chloro-3-pyridyl)methyl]-3-hydropurine-6-ylamine], with 4.70 to 6.00; and `Nc1ncn(Cc2c(Cl)ccnc2F)c2ncnc1-2` [3-[(4-chloro-2-fluoro-3-pyridyl)methyl]-3-hydropurine-6-ylamine], with 4.70 to 6.00. For `Nc1ncn(Cc2ccccc2)c2ncnc1-2` [3-benzyl-3-hydropurine-6-ylamine, 3-Benzyl-3-hydropurine-6-ylamine] the value was 4.70 to 6.00; for `N#Cc1cccc(-c2nc3c(N)ncn(Cc4c(Cl)cccc4Cl)c-3n2)c1` [3-{6-Amino-3-[(2,6-dichlorophenyl)methyl]-3-hydropurin-8-yl}benzenecarbonitrile], at least 6.00.
